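Results reflect a 48-hour exposure of cells in 96-well plates to compound at five concentrations. TGI denotes the concentration required for complete inhibition of growth.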
Key:
Assay in all cases: DTP human tumour cell line panel, 48 h
[1] = test system: NCI-H522 lung
[2] = test system: KM12 colon
[3] = test system: K-562 leukemia
[4] = test system: HS 578T breast
[5] = test system: IGROV1 ovarian
[6] = test system: LOX IMVI melanoma
[7] = test system: HCT-15 colon
[8] = test system: NCI-H226 lung
[9] = test system: HOP-92 NSCLC
[10] = test system: NCI/ADR-RES ovarian
[11] = test system: DU-145 prostate
[12] = test system: MCF7 breast
[13] = test system: SNB-75 CNS
[14] = test system: UO-31 renal
[15] = test system: SR leukemia
[16] = test system: OVCAR-3 ovarian
[17] = test system: UACC-62 melanoma
[18] = test system: MALME-3M melanoma
[19] = test system: SNB-19 CNS
[20] = test system: U251 CNS
[21] = test system: SK-OV-3 ovarian
[22] = test system: NCI-H460 lung
[23] = test system: HT29 colon
[24] = test system: OVCAR-5 ovarian
[25] = test system: CCRF-CEM leukemia
[26] = test system: SK-MEL-2 melanoma
[27] = test system: PC-3 prostate
[28] = test system: COLO 205 colon
[29] = test system: MDA-N
[30] = test system: NCI-H23 lung
[31] = test system: RXF 393 renal
[32] = test system: A549 NSCLC
[33] = test system: OVCAR-8 ovarian
[34] = test system: SF-295 CNS
[35] = test system: MDA-MB-435
[36] = test system: SF-268 CNS
[37] = test system: CAKI-1 renal
[38] = test system: UACC-257 melanoma
[39] = test system: SK-MEL-5 melanoma
[40] = test system: SF-539 CNS
[41] = test system: HL-60(TB) leukemia
[42] = test system: SW-620 colon
[43] = test system: EKVX NSCLC
[44] = test system: HOP-62 NSCLC
[45] = test system: RPMI-8226 leukemia
[46] = test system: OVCAR-4 ovarian
[47] = test system: ACHN renal
[48] = test system: M14 melanoma
[49] = test system: SN12C renal
[50] = test system: TK-10 renal
[51] = test system: SK-MEL-28 melanoma
[52] = test system: MDA-MB-231 breast
[53] = test system: MOLT-4 leukemia

Measured: TGI

CN(CC(=O)O)c1ncc2c(n1)-c1ccccc1OC2c1ccccc1 (stereo not drawn)
> 100 µM: [1] | [2] | [3] | [4] | [5] | [6] | [7] | [8] | [9] | [10] | [11] | [12] | [13] | [14] | [15] | [16] | [17] | [18] | [19] | [20] | [21] | [22] | [23] | [24] | [25] | [26] | [27] | [28] | [29] | [30] | [31] | [32] | [33] | [34] | [35] | [36] | [37] | [38] | [39] | [40] | [41] | [42] | [43] | [44] | [45] | [46] | [47] | [48] | [49] | [50] | [51] | [52] | [53]

Source: PubChem BioAssay (NCI)
